The values that follow come from ChEMBL document CHEMBL4602715, “Efficacy and Tolerability of Pyrazolo[1,5-a]pyrimidine RET Kinase Inhibitors for the Treatment of Lung Adenocarcinoma” (ACS Med Chem Lett, 2020).

Each structure is given as a SMILES string.

Data set [1] can be described thus: Oral bioavailability in BALB/c mouse at 20 mg/kg measured upto 24 hrs by LC-MS/MS analysis. The format is ADME, organism-based. Conditions: in vivo; call rule not given here.
The nature of data set [2]: AUC in BALB/c mouse at 20 mg/kg, po measured upto 24 hrs by LC-MS/MS analysis. Conditions: in vivo. Set-up: dose 20 mg/kg, time < 24 hr, route oral. The format is ADME, organism-based.
Data set [3] is described as follows: Cmax in BALB/c mouse at 20 mg/kg, po measured upto 24 hrs by LC-MS/MS analysis. The format is ADME, organism-based. Details: dose 20 mg/kg, route oral. The note with it: in vivo.
Data set [4] in a line: Half life in BALB/c mouse at 20 mg/kg, po measured upto 24 hrs by LC-MS/MS analysis. The format is ADME, organism-based. Conditions: in vivo.
Data set [5] can be described thus: Ratio of AUC in BALB/c mouse brain to plasma at 20 mg/kg, po measured upto 24 hrs by LC-MS/MS analysis. Conditions: brain and plasma. The format is ADME, organism-based.
Data set [6] can be described thus: Ratio of Cmax in BALB/c mouse brain to plasma at 20 mg/kg, po measured upto 24 hrs by LC-MS/MS analysis. The format is ADME, organism-based. The note with it: brain and plasma.
Data set [7] is described as follows: Toxicity in Harlan Foxn1 nude mouse xenografted with rat RIE cells transfected with KIF5B/RET assessed as reduction in body weight at 30 to 60 mg/kg, po qd for 14 days. The format is organism-based. Conditions: in vivo, 336 h.
Data set [8] can be described thus: Toxicity in Harlan Foxn1 nude mouse xenografted with rat RIE cells transfected with KIF5B/RET assessed as reddish mottled appearance of lungs at 30 to 60 mg/kg, po qd for 14 days. The format is organism-based. Conditions: in vivo, 336 h.
A short description of data set [9]: Toxicity in Harlan Foxn1 nude mouse xenografted with rat RIE cells transfected with KIF5B/RET assessed as lung collapse at 30 to 60 mg/kg, po qd for 14 days. The format is organism-based. The note with it: in vivo, 336 h.
Data set [10] can be described thus: Toxicity in Harlan Foxn1 nude mouse xenografted with rat RIE cells transfected with KIF5B/RET assessed as signs of hemorrhaging at 30 to 60 mg/kg, po qd for 14 days. The format is organism-based. The note with it: in vivo, 336 h.
Data set [11] is described as follows: Toxicity in Harlan Foxn1 nude mouse xenografted with rat RIE cells transfected with KIF5B/RET at 10 mg/kg, po qd for 14 days. The format is organism-based. Conditions: in vivo, 336 h.
Data set [12] can be described thus: Toxicity in Harlan Foxn1 nude mouse xenografted with rat RIE cells transfected with KIF5B/RET at 1 to 10 mg/kg, po qd for 10 days. The format is organism-based. Conditions: in vivo, 240 h.
Data set [13] is described as follows: Toxicity in NSG mouse xenografted with human LC2/ad cells assessed as body weight loss at 10 mg/kg, po qd for 21 days measured following drug dosing termination on day 24. The format is organism-based. Conditions: in vivo, 504 h.
The nature of data set [14]: Toxicity in NSG mouse xenografted with human LC2/ad cells assessed as necropsy in kidneys at 10 mg/kg, po qd for 21 days measured following drug dosing termination on day 24. The format is organism-based. The note with it: in vivo, 504 h.
A short description of data set [15]: Drug uptake in plasma of Harlan Foxn1 nude mouse xenografted with rat RIE cells transfected with KIF5B/RET at 1 to 10 mg/kg, po qd for 10 days by LC-MS/MS analysis. The format is ADME, organism-based. Conditions: in vivo, 240 h.

In the case of `COc1ccc(-c2cnn3c(N)c(-c4ccccc4)c(NC4CC(C)(C)N(C)C(C)(C)C4)nc23)cc1OC.Cl`, the bioavailability in [1] stood at 94%. The same molecule returned an AUC at 24 h in [2] of 12 µM·h. Also, the maximum concentration (Cmax) in data set [3] was 730 nM. Moreover, the half-life in data set [4] was 11 h. Besides, the Kp at 24 h in [5] came out at 0.94; in data set [6] it was 0.81. Also, the Activity result in data set [7] is given as “Toxic”; in data set [8] it was “Toxic”; in data set [9] it was “Toxic”; in data set [10] it was “Toxic”; in [11], “Non-Toxic”; in [12] it was “Non-Toxic”. Also, the Activity entry in data set [13] and in data set [14] was “Toxic” in each case. Further, the Drug uptake entry in data set [15] is given as “Active”.
